Experimental data published in BindingDB's records for doi:10.1111/j.1747-0285.2008.00638.x (Mcgill University/Royal Victoria Hospital, 2008).

Biological target: Epidermal growth factor receptor (Homo sapiens, UniProt P00533)
Experiment: Kinase Enzyme Assay
Settings: 37 °C
Text: EGFR kinase assay was perform using Nunc MaxiSorp purchased from Nalge Nunc Interantional.

Sequence of Epidermal growth factor receptor (P00533 whole entry): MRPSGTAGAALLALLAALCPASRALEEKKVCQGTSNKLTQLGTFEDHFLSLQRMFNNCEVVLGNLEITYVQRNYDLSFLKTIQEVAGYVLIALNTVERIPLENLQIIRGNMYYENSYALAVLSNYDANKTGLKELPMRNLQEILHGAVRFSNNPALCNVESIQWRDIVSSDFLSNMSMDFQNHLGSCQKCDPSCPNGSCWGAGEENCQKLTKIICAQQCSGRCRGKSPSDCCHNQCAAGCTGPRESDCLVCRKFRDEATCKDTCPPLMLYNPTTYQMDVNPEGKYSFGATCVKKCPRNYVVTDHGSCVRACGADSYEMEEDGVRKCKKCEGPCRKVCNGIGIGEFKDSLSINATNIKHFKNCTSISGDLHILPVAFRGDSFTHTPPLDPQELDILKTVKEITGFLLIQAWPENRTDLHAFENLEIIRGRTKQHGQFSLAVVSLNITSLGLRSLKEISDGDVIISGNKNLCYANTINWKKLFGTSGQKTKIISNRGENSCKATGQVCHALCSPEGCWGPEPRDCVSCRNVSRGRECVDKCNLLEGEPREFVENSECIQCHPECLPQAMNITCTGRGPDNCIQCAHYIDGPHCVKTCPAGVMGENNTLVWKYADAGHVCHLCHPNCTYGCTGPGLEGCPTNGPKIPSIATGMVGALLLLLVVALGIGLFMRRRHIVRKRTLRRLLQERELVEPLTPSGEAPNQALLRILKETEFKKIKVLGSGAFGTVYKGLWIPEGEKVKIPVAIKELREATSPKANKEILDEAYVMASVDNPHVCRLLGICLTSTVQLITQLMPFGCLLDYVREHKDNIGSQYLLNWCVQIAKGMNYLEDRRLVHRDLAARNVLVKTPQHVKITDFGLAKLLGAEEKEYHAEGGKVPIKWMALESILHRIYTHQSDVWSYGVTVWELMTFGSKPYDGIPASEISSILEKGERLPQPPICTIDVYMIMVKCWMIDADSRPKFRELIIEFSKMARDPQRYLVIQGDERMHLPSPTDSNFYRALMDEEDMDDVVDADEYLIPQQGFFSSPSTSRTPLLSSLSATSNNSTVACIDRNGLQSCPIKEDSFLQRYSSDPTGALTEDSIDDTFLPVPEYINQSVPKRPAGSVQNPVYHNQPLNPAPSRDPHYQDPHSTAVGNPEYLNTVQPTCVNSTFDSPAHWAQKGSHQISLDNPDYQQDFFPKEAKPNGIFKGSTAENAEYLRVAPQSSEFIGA

Row | IC50 | SMILES
1 | 950 nM | Cc1cccc(Nc2ncnc3ccc(/N=N/N(C)CCN(CCN4CCOCC4)CCN(C)/N=N/c4ccc5ncnc(Nc6cccc(C)c6)c5c4)cc23)c1 [Bis-quinazolinotriazene, 5a]
2 | 120 nM | CN(CCN(CCN1CCOCC1)CCN(C)/N=N/c1ccc2ncnc(Nc3cccc(Br)c3)c2c1)/N=N/c1ccc2ncnc(Nc3cccc(Br)c3)c2c1 [Bis-quinazolinotriazene, 5b]
3 | 150 nM | CN(CCN(CCN1CCOCC1)CCN(C)/N=N/c1ccc2ncnc(Nc3cccc(Cl)c3)c2c1)/N=N/c1ccc2ncnc(Nc3cccc(Cl)c3)c2c1 [Bis-quinazolinotriazene, 5c]
